How the values were obtained:
KRAS G12C = KRAS G12C (Homo sapiens, UniProt P01116, G12C); test: GDP-GTP exchange assay (KRAS_G12C exchange); format: biochemical; conditions: bodipy-GDP loaded KRAS G12C 2.5 nM, SOS1 150 nM, GppNHp; 2 hours pre-incubation, 2 hours reaction; read-out: G12C_exchange
Outline: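 Fluorescence exchange of bodipy-GDP for GppNHp, SOS1-driven, read at 485/520 nm; IC50 from four-parameter variable-slope fit. Both mutants used 2.5 nM final labelled protein and a 2 h compound pre-incubation. G12C reaction had 500 uM GppNHp and 150 nM SOS1 for 2 h; G12D ran 4 h.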

[1] = tested on: MIA PaCa-2 (KRAS G12C) cells; test: Cellular pERK HTRF assay (KRAS_G12C pERK); format: cell-based, human; conditions: Homo sapiens, MIA PaCa-2, 4 hours incubation, read-out: G12C_pERK
Outline: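 Phospho-ERK1/2 HTRF readout (665 and 620 nm) in lysed MIA PaCa-2 cells, antibodies incubated overnight at room temperature. Cells seeded the day before and treated with G12C compounds for 4 h at 37 °C; IC50 fitted to percent inhibition against log inhibitor concentration.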

Chain of KRAS G12C (P01116 1-188 isoform P01116-2 G12C): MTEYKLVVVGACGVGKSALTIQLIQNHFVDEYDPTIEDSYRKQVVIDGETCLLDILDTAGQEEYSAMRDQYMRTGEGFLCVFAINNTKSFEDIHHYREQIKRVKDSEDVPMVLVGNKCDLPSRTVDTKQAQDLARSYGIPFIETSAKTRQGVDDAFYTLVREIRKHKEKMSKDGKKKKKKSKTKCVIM

Row | SMILES | IC50 (KRAS G12C) [nM] | IC50 [1] [nM]
1 | CC#CC(=O)N1CC[C@H](n2nnc3c(N4CCCCC4=O)nc4c(F)c(-c5cccc(Cl)c5C)c(Cl)cc4c32)C[C@H]1CC#N [Example 93, 2-((2S,4S)-1-(but-2-ynoyl)-4-(8-chloro-7-(3-chloro-2-methylphenyl)-6-fluoro-4-(2-oxopiperidin-1-yl)-1H-[1,2,3]triazolo[4,5-c]quinolin-1-yl)piperidin-2-yl)acetonitrile] | ≤ 100 | ≤ 100
2 | CC#CC(=O)N1CC[C@H](n2nnc3c(O[C@@H](C)CN(C)C)nc4c(F)c(-c5cccc(Cl)c5C)c(Cl)cc4c32)C[C@H]1CC#N [Example 94, 2-((2S,4S)-1-(but-2-ynoyl)-4-(8-chloro-7-(3-chloro-2-methylphenyl)-4-(((S)-1-(dimethylamino)propan-2-yl)oxy)-6-fluoro-1H-[1,2,3]triazolo[4,5-c]quinolin-1-yl)piperidin-2-yl)acetonitrile] | ≤ 100 | ≤ 100
3 | C=CC(=O)N1CC[C@H](n2nnc3c(OC[C@@H]4CCCN4C)nc4c(F)c(-c5cccc(C#N)c5C)c(Cl)cc4c32)C[C@H]1CC#N [Example 95, 3-(1-((2S,4S)-1-acryloyl-2-(cyanomethyl)piperidin-4-yl)-8-chloro-6-fluoro-4-(((S)-1-methylpyrrolidin-2-yl)methoxy)-1H-[1,2,3]triazolo[4,5-c]quinolin-7-yl)-2-methylbenzonitrile] | ≤ 100 | ≤ 100
4 | CC#CC(=O)N1CC[C@H](n2nnc3c(OC[C@@H]4CCCN4C)nc4c(F)c(-c5cccc(C#N)c5C)c(Cl)cc4c32)C[C@H]1CC#N [Example 96, 3-(1-((2S,4S)-1-(but-2-ynoyl)-2-(cyanomethyl)piperidin-4-yl)-8-chloro-6-fluoro-4-(((S)-1-methylpyrrolidin-2-yl)methoxy)-1H-[1,2,3]triazolo[4,5-c]quinolin-7-yl)-2-methylbenzonitrile] | ≤ 100 | ≤ 100
5 | Cc1c(C#N)cccc1-c1c(Cl)cc2c(nc(OC[C@@H]3CCCN3C)c3nnn([C@H]4CCN(C(=O)/C=C/CN(C)C)[C@H](CC#N)C4)c32)c1F [Example 97, 3-(8-chloro-1-((2S,4S)-2-(cyanomethyl)-1-((E)-4-(dimethylamino)but-2-enoyl)piperidin-4-yl)-6-fluoro-4-(((S)-1-methylpyrrolidin-2-yl)methoxy)-1H-[1,2,3]triazolo[4,5-c]quinolin-7-yl)-2-methylbenzonitrile] | ≤ 100 | ≤ 100
6 | C=CC(=O)N1CC[C@H](n2nnc3c(OC[C@@H]4CCCN4C)nc4c(F)c(-c5cccc(Cl)c5C)c(C)cc4c32)C[C@H]1CC#N [Example 98, 2-((2S,4S)-1-acryloyl-4-(7-(3-chloro-2-methylphenyl)-6-fluoro-8-methyl-4-(((S)-1-methylpyrrolidin-2-yl)methoxy)-1H-[1,2,3]triazolo[4,5-c]quinolin-1-yl)piperidin-2-yl)acetonitrile] | ≤ 100 | ≤ 100
7 | C=CC(=O)N1CC[C@H](n2nnc3c(N4CC(C)(N(C)C)C4)nc4c(F)c(-c5cccc(Cl)c5C)c(C)cc4c32)C[C@H]1CC#N [Example 101, 2-((2S,4S)-1-acryloyl-4-(7-(3-chloro-2-methylphenyl)-4-(3-(dimethylamino)-3-methylazetidin-1-yl)-6-fluoro-8-methyl-1H-[1,2,3]triazolo[4,5-c]quinolin-1-yl)piperidin-2-yl)acetonitrile] | ≤ 100 | ≤ 100
8 | Cc1cc2c(nc(N3CC(C)(N(C)C)C3)c3nnn([C@H]4CCN(C(=O)/C=C/C(F)F)[C@H](CC#N)C4)c32)c(F)c1-c1cccc(Cl)c1C [Example 102, 2-((2S,4S)-4-(7-(3-chloro-2-methylphenyl)-4-(3-(dimethylamino)-3-methylazetidin-1-yl)-6-fluoro-8-methyl-1H-[1,2,3]triazolo-[4,5-c]quinolin-1-yl)-1-((E)-4,4-difluorobut-2-enoyl)-piperidin-2-yl)acetonitrile] | ≤ 100 | ≤ 100
9 | CC#CC(=O)N1CC[C@H](n2nnc3c(N4CC(C)(N(C)C)C4)nc4c(F)c(-c5cccc(Cl)c5C)c(C)cc4c32)C[C@H]1CC#N [Example 103, 2-((2S,4S)-1-(but-2-ynoyl)-4-(7-(3-chloro-2-methyl-phenyl)-4-(3-(dimethyl-amino)-3-methylazetidin-1-yl)-6-fluoro-8-methyl-1H-[1,2,3]triazolo[4,5-c]quinolin-1-yl)piperidin-2-yl)acetonitrile] | ≤ 100 | ≤ 100
10 | Cc1cc2c(nc(N3CC(C)(N(C)C)C3)c3nnn([C@H]4CCN(C(=O)/C=C/CN(C)C)[C@H](CC#N)C4)c32)c(F)c1-c1cccc(Cl)c1C [Example 105, 2-((2S,4S)-4-(7-(3-chloro-2-methylphenyl)-4-(3-(dimethylamino)-3-methylazetidin-1-yl)-6-fluoro-8-methyl-1H-[1,2,3]triazolo[4,5-c]quinolin-1-yl)-1-((E)-4-(dimethylamino)but-2-enoyl)piperidin-2-yl)acetonitrile] | ≤ 100 | ≤ 100
11 | C=CC(=O)N1CC[C@H](n2cnc3c(N4CC(N(C)C)C4)nc4c(F)c(-c5cccc(C)c5)c(Cl)cc4c32)C[C@H]1CC#N [Example 109, 2-((2S,4S)-1-acryloyl-4-(8-chloro-4-(3-(dimethylamino)-azetidin-1-yl)-6-fluoro-7-(m-tolyl)-1H-imidazo[4,5-c]quinolin-1-yl)piperidin-2-yl)acetonitrile] | ≤ 100 | ≤ 100

The next lines start with the values.

Row | IC50 (KRAS G12C) [nM] | IC50 [1] [nM] | SMILES
12 | ≤ 100 | ≤ 100 | CC#CC(=O)N1CC[C@H](n2nnc3c(OC[C@@H]4CCCN4C)nc4c(F)c(-c5cccc(Cl)c5C)c(C)cc4c32)C[C@H]1CC#N [Example 99, 2-((2S,4S)-1-(but-2-ynoyl)-4-(7-(3-chloro-2-methylphenyl)-6-fluoro-8-methyl-4-(((S)-1-methylpyrrolidin-2-yl)methoxy)-1H-[1,2,3]triazolo[4,5-c]quinolin-1-yl)piperidin-2-yl)acetonitrile]
13 | ≤ 100 | ≤ 100 | COC/C=C/C(=O)N1CC[C@H](n2nnc3c(OC[C@@H]4CCCN4C)nc4c(F)c(-c5cccc(Cl)c5C)c(C)cc4c32)C[C@H]1CC#N [Example 100, 2-((2S,4S)-4-(7-(3-chloro-2-methylphenyl)-6-fluoro-8-methyl-4-(((S)-1-methyl-pyrrolidin-2-yl)methoxy)-1H-[1,2,3]triazolo[4,5-c]quinolin-1-yl)-1-((E)-4-methoxybut-2-enoyl)piperidin-2-yl)acetonitrile]
14 | ≤ 100 | ≤ 100 | Cc1cc2c(nc(N3CC(C)(N(C)C)C3)c3nnn([C@H]4CCN(C(=O)/C=C/CF)[C@H](CC#N)C4)c32)c(F)c1-c1cccc(Cl)c1C [Example 104, 2-((2S,4S)-4-(7-(3-chloro-2-methylphenyl)-4-(3-(dimethylamino)-3-methyl-azetidin-1-yl)-6-fluoro-8-methyl-1H-[1,2,3]triazolo[4,5-c]quinolin-1-yl)-1-((E)-4-fluorobut-2-enoyl)piperidin-2-yl)acetonitrile]
15 | ≤ 100 | ≤ 100 | C=CC(=O)N1CC[C@H](n2cnc3c(N4CC(N(C)C)C4)nc4c(F)c(-c5ccccc5C(F)(F)F)c(Cl)cc4c32)C[C@H]1CC#N [Example 106, 2-((2S,4S)-1-acryloyl-4-(8-chloro-4-(3-(dimethylamino)azetidin-1-yl)-6-fluoro-7-(2-(trifluoromethyl)phenyl)-1H-imidazo[4,5-c]quinolin-1-yl)piperidin-2-yl)acetonitrile]
16 | ≤ 100 | ≤ 100 | C=CC(=O)N1CC[C@H](n2cnc3c(N4CC(N(C)C)C4)nc4c(F)c(-c5cccc(Cl)c5Cl)c(Cl)cc4c32)C[C@H]1CC#N [Example 107, 2-((2S,4S)-1-acryloyl-4-(8-chloro-7-(2,3-dichlorophenyl)-4-(3-(dimethylamino)azetidin-1-yl)-6-fluoro-1H-imidazo[4,5-c]quinolin-1-yl)piperidin-2-yl)acetonitrile]
17 | ≤ 100 | ≤ 100 | C=CC(=O)N1CC[C@H](n2cnc3c(N4CC(N(C)C)C4)nc4c(F)c(-c5cnccc5C)c(Cl)cc4c32)C[C@H]1CC#N [Example 108, 2-((2S,4S)-1-acryloyl-4-(8-chloro-4-(3-(dimethylamino)azetidin-1-yl)-6-fluoro-7-(4-methylpyridin-3-yl)-1H-imidazo[4,5-c]quinolin-1-yl)piperidin-2-yl)acetonitrile]
18 | ≤ 100 | ≤ 100 | C=CC(=O)N1CC[C@H](n2cnc3c(N4CC(N(C)C)C4)nc4c(F)c(-c5cncc(C)c5C)c(Cl)cc4c32)C[C@H]1CC#N [Example 110a, 2-((2S,4S)-1-acryloyl-4-(8-chloro-4-(3-(dimethylamino)-azetidin-1-yl)-7-(4,5-dimethylpyridin-3-yl)-6-fluoro-1H-imidazo[4,5-c]quinolin-1-yl)piperidin-2-yl)acetonitrile]
19 | ≤ 100 | ≤ 100 | C=CC(=O)N1CC[C@H](n2nnc3c(N4CC(N(C)C)C4)nc4c(F)c(-c5cccc(C)c5C)c(Cl)cc4c32)C[C@H]1CC#N [Example 111, 2-((2S,4S)-1-acryloyl-4-(8-chloro-4-(3-(dimethylamino)azetidin-1-yl)-7-(2,3-dimethylphenyl)-6-fluoro-1H-[1,2,3]triazolo[4,5-c]quinolin-1-yl)piperidin-2-yl)acetonitrile]
20 | ≤ 100 | ≤ 100 | C=CC(=O)N1CC[C@H](n2nnc3c(N4CC(N(C)C)C4)nc4c(F)c(-c5cccc(Cl)c5C)c(Cl)cc4c32)C[C@H]1CC#N [Example 112, 2-((2S,4S)-1-acryloyl-4-(8-chloro-7-(3-chloro-2-methylphenyl)-4-(3-(dimethylamino)azetidin-1-yl)-6-fluoro-1H-[1,2,3]triazolo[4,5-c]quinolin-1-yl)piperidin-2-yl)acetonitrile]

From US20210269434A1, “TRICYCLIC COMPOUNDS AS INHIBITORS OF KRAS” (Incyte Corporation, priority 2020, published 2021)
